Test results reported in patent EP0121012A1, “Oral compositions” (UNILEVER PLC, priority 1983, dated 1984).

How the values were obtained:
S.mutans 6715 = assay: Inhibition of bacterial growth (24 h, optical density); format: cell-based, Streptococcus mutans; details: recalculated as ppm F, 1440 min
[1] = Dissolution of hydroxyapatite discs following fluoride treatment (phosphate release)
S.salivarius SS4 = assay: Inhibition of bacterial growth (24 h, optical density); format: cell-based, Streptococcus salivarius; details: for IC50: 50% inhibition in growth, 24 hours, means of triplicate experiments, read-out: ID/50 (the source's name); for ID/50: recalculated as ppm F, 1440 min
Osborne-Mendel rats = assay: Rat caries study; format: in vivo
S.sanguis 10557 = assay: Inhibition of bacterial growth (24 h, optical density); format: cell-based, Streptococcus sanguis; details: for IC50: 50% inhibition in growth, 24 hours, means of triplicate experiments, read-out: ID/50 (the source's name); for ID/50: recalculated as ppm F, 1440 min
S.salivarius H-257 = assay: as above; format: cell-based, Streptococcus salivarius; details: for IC50: 50% inhibition in growth, 24 hours, means of triplicate experiments, read-out: ID/50 (the source's name); for ID/50: recalculated as ppm F, 1440 min
S.mutans OMZ-176 = assay: as above; format: cell-based, Streptococcus mutans; details: for IC50: 50% inhibition in growth, 24 hours, means of triplicate experiments, read-out: ID/50 (the source's name); for ID/50: recalculated as ppm F, 1440 min
L.casei = assay: as above; format: cell-based, Lactobacillus casei; details: for IC50: 50% inhibition in growth, 24 hours, means of triplicate experiments, read-out: ID/50 (the source's name); for ID/50: recalculated as ppm F, 1440 min
S.sanguis 10556 = assay: as above; format: cell-based, Streptococcus sanguis; details: for IC50: 50% inhibition in growth, 24 hours, means of triplicate experiments, read-out: ID/50 (the source's name); for ID/50: recalculated as ppm F, 1440 min
[2] = Stability of solution on standing (haze / turbidity)
[3] = normal temperature and pressure
Artificial Plaque = assay: In vitro antiplaque study on saliva-coated aluminium plummets; format: cell-based; details: means ± 95% confidence limits, five replicas
[4] = Availability of F ion by fluoride-selective electrode; format: physicochemical; details: Orion fluoride electrode
pH of aqueous solution = format: physicochemical
Source text: An aqueous solution of ZnNH4F3 has a pH of 5.8. The preferred pH of oral compositions containing ZnNH4F3 is from 4.5 to 8.0. A 1000 ppm F^- solution was stable.

[5] = complexing between the Zn and NH4; cited from earlier work
[6] = 1000 ppm F- solution, pH 4.0, vs disc treated with buffer alone, means of triplicate, 30 min
[7] = 1000 ppm F- solution, pH 5.0, vs disc treated with buffer alone, means of triplicate, 30 min
[8] = 1000 ppm F- solution, pH 6.0, vs disc treated with buffer alone, means of triplicate, 30 min
[9] = 1000 ppm F- solution, pH 7.0, vs disc treated with buffer alone, means of triplicate, 30 min

Row | Molecule | ID/50 (S.mutans 6715) [ppm F] | % Reduction in Dissolution [1, 6] [%] | % Reduction in Dissolution [1, 7] [%] | % Reduction in Dissolution [1, 8] [%] | % Reduction in Dissolution [1, 9] [%] | IC50 (S.salivarius SS4) [mM] | ID/50 (S.salivarius SS4) [ppm F] | IC50 (S.sanguis 10557) [µM] | ID/50 (S.sanguis 10557) [ppm F] | IC50 (S.salivarius H-257) [µM] | ID/50 (S.salivarius H-257) [ppm F] | IC50 (S.mutans OMZ-176) [mM] | ID/50 (S.mutans OMZ-176) [ppm F] | IC50 (L.casei) [mM] | ID/50 (L.casei) [ppm F] | IC50 (S.sanguis 10556) [µM] | ID/50 (S.sanguis 10556) [ppm F] | Percentage Inhibition of Growth of Artificial Plaque (Artificial Plaque; Zinc Conc. 6.0 mM/L) | Percentage Inhibition of Growth of Artificial Plaque (Artificial Plaque; Zinc Conc. 15.0 mM/L) | Percentage Inhibition of Growth of Artificial Plaque (Artificial Plaque; Zinc Conc. 30.0 mM/L) | other results
1 | [F-].[Na+] [NaF] | 138 | 44 | 36 | 31 | 31 | 13.4 | 255 | 1820 | 35 | 3770 | 72 | 16.3 | 309 | > 12 | 352 | 1180 | 22 |  |  |  | Caries/ Rat (Osborne-Mendel rats; 1000 ppm F-, topical to molar teeth, 21 days, cariogenic diet, only severe lesions (B & C) scored, water control 5.25): 3.69; % Reduction (Osborne-Mendel rats; reduction in caries based on the water control, 1000 ppm F-, topical, 21 days): 29.7%
2 | [F][Sn][F] [SnF2] |  | 57 | 54 | 45 | 43 |  |  |  |  |  |  |  |  |  |  |  |  |  |  |  | stability of solution ([2]; after 24 hours at room temperature): developed turbidity
3 | [F][Zn][F] [ZnF2] |  |  |  |  |  |  |  |  |  |  |  |  |  |  |  |  |  |  |  |  | solubility [3]: 1.5%
4 | Cl.N.[Cl-].[Cl-].[Zn+2] [ZnNH4Cl3] |  |  |  |  |  | 6.5 |  |  |  |  |  |  |  | 10 |  | 460 |  |  |  |  | 
5 | O=S(=O)([O-])[O-].[Zn+2] [ZnSO4] |  |  |  |  |  | 6 |  | 400 |  | 750 |  | 7.5 |  | 10.4 |  | 360 |  | 47 ± 14 | 51 ± 14 | 64 ± 14 | 
6 | zinc ammonium fluoride [ZnNH4F3] | 92 |  |  |  |  | 1.88 | 104 | 250 | 14 | 340 | 19 | 3.05 | 174 | 4.7 | 268 | 210 | 12 | 45 ± 14 | 48 ± 14 | 60 ± 14 | % Reduction in Dissolution ([1]; hydroxyapatite discs, pH 4, 30 min): 52%; % Reduction in Dissolution ([1]; hydroxyapatite discs, pH 5, 30 min): 49%; % Reduction in Dissolution ([1]; hydroxyapatite discs, pH 6, 30 min): 43%; % Reduction in Dissolution ([1]; hydroxyapatite discs, pH 7, 30 min): 40%; stability of solution ([2]; 1000 ppm F- solution, not hazy on standing after several weeks): stable; % Reduction (Osborne-Mendel rats; rat, in vivo): 30.9%; Caries/ Rat (Osborne-Mendel rats; rat, in vivo): 3.63; availability of F ion ([4]; solution at 1000 ppm F level): 100%; availability of F ion ([4]; solution at 2500 ppm F level): 100%; pH of aqueous solution (pH of aqueous solution): 5.8; log K [5]: 2.18-2.59
